Test results from ChEMBL document CHEMBL3588788, “Structure-activity relationship of hybrids of Cinchona alkaloids and bile acids with in vitro antiplasmodial and antitrypanosomal activities” (Eur J Med Chem, 2015).

Key:
Plasmodium falciparum [1] = assay: Antiplasmodial activity against Plasmodium falciparum 3D7 assessed as reduction in parasite viability by parasite lactate dehydrogenase assay; format: functional, organism-based
[2] = Cytotoxicity against human WI38 cells by MTT assay; format: cell-based, WI-38
in vitro = settings: human, WI38 cells
Description: Selectivity index, ratio of IC50 against human WI38 cells to IC50 for Trypanosoma brucei brucei Lister 427 bloodstream forms

[3] = test system: Trypanosoma brucei brucei; assay: Antitrypanosomal activity against Trypanosoma brucei brucei Lister 427 bloodstream forms by microtiter plate based assay; format: functional, organism-based
[4] = Selectivity index, ratio of IC50 against human WI38 cells to IC50 for Plasmodium falciparum 3D7; format: toxicity, cell-based, WI-38; settings: read-out: Ratio IC50
[5] = test system: Trypanosoma brucei brucei; assay: Potency index, ratio of IC50 for QN to IC50 for test compound against Trypanosoma brucei brucei Lister 427 bloodstream forms by microtiter plate based assay; format: functional
Plasmodium falciparum [6] = assay: Potency index, ratio of IC50 for QN to IC50 for test compound against Plasmodium falciparum 3D7 by parasite lactate dehydrogenase assay; format: functional
[7] = test system: Trypanosoma brucei brucei; assay: Antitrypanosomal activity against Trypanosoma brucei brucei Lister 427 bloodstream forms assessed as inhibition of parasite growth at 100 ug/ml by microtiter plate based assay; format: functional
Plasmodium falciparum [8] = assay: Antiplasmodial activity against Plasmodium falciparum 3D7 assessed as inhibition of parasite viability at 20 ug/ml by parasite lactate dehydrogenase assay; format: functional
[9] = Cytotoxicity against human WI38 cells assessed as inhibition of cell growth at 100 ug/ml by MTT assay; format: cell-based, WI-38
[10] = Cytotoxicity against human WI38 cells assessed as inhibition of cell growth at 20 ug/ml by MTT assay; format: cell-based, WI-38
Plasmodium falciparum [11] = assay: Antiplasmodial activity against Plasmodium falciparum 3D7 assessed as inhibition of parasite viability at 100 ug/ml by parasite lactate dehydrogenase assay; format: functional
[12] = test system: Trypanosoma brucei brucei; assay: Antitrypanosomal activity against Trypanosoma brucei brucei Lister 427 bloodstream forms assessed as inhibition of parasite growth at 20 ug/ml by microtiter plate based assay; format: functional
[13] = Homo sapiens, WI-38, read-out: IC50

SMILES | IC50 (Plasmodium falciparum [1]) [µM] | IC50 [2, 13] [µM] | selectivity ratio (in vitro) | IC50 [3] [µM] | selectivity ratio [4] | Ratio IC50 [5] | Ratio IC50 (Plasmodium falciparum [6]) | IC50 ([2]; wi-38) | inhibition at 100 µg/mL [7] [%] | inhibition at 20 µg/mL (Plasmodium falciparum [8]) [%] | inhibition at 100 ug/ml [9] [%] | inhibition at 20 ug/ml [10] [%] | inhibition at 100 µg/mL (Plasmodium falciparum [11]) [%] | inhibition at 20 µg/mL [12] [%]
C=C[C@H]1CN2CC[C@H]1C[C@@H]2[C@@H](O)c1ccnc2ccc(OC)cc12 [QUINIDINE] | 0.194 | 34.8 |  |  |  |  |  |  |  |  |  |  |  | 
C=C[C@H]1CN2CC[C@H]1C[C@H]2[C@H](O)c1cc(CC[C@@H](C)[C@H]2CC[C@H]3[C@@H]4[C@H](O)[C@H](O)[C@@H]5C[C@H](O)CC[C@]5(C)[C@H]4CC[C@]23C)nc2ccc(OC)cc12 | 0.275 | 5.55 | 7.3 | 0.76 | 20 | 27.8 | 2.3 |  |  |  |  |  |  | 
C[C@@H]1CC[C@H]2[C@@H](C)C(=O)O[C@@H]3O[C@@]4(C)CC[C@@H]1[C@]32OO4 [ARTEMISININ] | 0.0362 |  |  |  |  |  |  | Not Active |  |  |  |  |  | 
C[C@H](CCC(=O)O)[C@H]1CC[C@H]2[C@@H]3[C@H](O)C[C@@H]4C[C@H](O)CC[C@]4(C)[C@H]3CC[C@]12C [CHENODIOL] | 18.9 |  |  |  |  |  |  |  | 100 | 77 | 94 | 27 | 98 | 11
C=C[C@H]1CN2CC[C@H]1C[C@H]2[C@H](O)c1cc(CC[C@@H](C)[C@H]2CC[C@H]3[C@@H]4C[C@H](O)[C@@H]5C[C@H](O)CC[C@]5(C)[C@H]4CC[C@]23C)nc2ccc(OC)cc12 | 0.224 | 4.6 | 7 | 0.65 | 21 | 32.4 | 2.8 |  |  |  |  |  |  | 
C=C[C@H]1CN2CC[C@H]1C[C@H]2[C@H](O)c1cc(CC[C@@H](C)[C@H]2CC[C@H]3[C@@H]4[C@H](OC(C)=O)[C@H](OC(C)=O)[C@@H]5C[C@H](OC(C)=O)CC[C@]5(C)[C@H]4CC[C@]23C)nc2ccc(OC)cc12 | 0.056 | 3.76 | 8.3 | 0.45 | 67.2 | 46.8 | 11.3 |  |  |  |  |  |  | 
C=C[C@H]1CN2CC[C@H]1C[C@H]2[C@H](O)c1ccnc2ccc(OC)cc12 [QUININE] | 0.633 | 20.2 | 1 |  |  |  |  |  |  |  |  |  |  | 
C=C[C@H]1CN2CC[C@H]1C[C@@H]2[C@@H](O)c1ccnc2ccccc12 [CINCHONINE] | 0.292 | > 68 |  | > 68 | > 222 |  |  |  |  |  |  |  |  | 
C[C@H](CCC(=O)O)[C@H]1CC[C@H]2[C@@H]3CC[C@@H]4C[C@H](O)CC[C@]4(C)[C@H]3C[C@H](O)[C@]12C [DEOXYCHOLIC ACID] | 93.6 |  |  |  |  |  |  |  | 100 | 59 | 50 | 9 | 100 | 2
CC(=O)O[C@@H]1CC[C@@]2(C)[C@H](CC[C@@H]3[C@@H]2CC[C@]2(C)[C@@H]([C@H](C)CCC(=O)O)CC[C@@H]32)C1 | 59.5 |  |  |  |  |  |  |  | 100 | 70 | 98 | 27 | 100 | 15
C[C@H](CCC(=O)O)[C@H]1CC[C@H]2[C@@H]3[C@H](O)C[C@@H]4C[C@H](O)CC[C@]4(C)[C@H]3C[C@H](O)[C@]12C [CHOLIC ACID] | 133 |  |  |  |  |  |  |  | 24 | 56 |  | 6 | 83 | 20
C[C@H](CCC(=O)O)[C@H]1CC[C@H]2[C@@H]3C[C@H](O)[C@@H]4C[C@H](O)CC[C@]4(C)[C@H]3CC[C@]12C [HYODEOXYCHOLIC_ACID] | 40.9 |  |  |  |  |  |  |  | 94 | 67 | 22 | 21 | 97 | 1
CC(=O)O[C@@H]1CC[C@]2(C)[C@H]3CC[C@]4(C)[C@@H]([C@H](C)CCC(=O)O)CC[C@H]4[C@@H]3C[C@H](OC(C)=O)[C@@H]2C1 | 32.7 |  |  | 16.3 |  |  |  |  | 100 | 73 | 98 | 20 | 97 | 81
CC(=O)O[C@@H]1CC[C@@]2(C)[C@@H](C1)C[C@@H](OC(C)=O)[C@@H]1[C@@H]2C[C@H](OC(C)=O)[C@]2(C)[C@@H]([C@H](C)CCC(=O)O)CC[C@@H]12 | 22.5 |  |  |  |  |  |  |  | 100 | 68 | 29 | 12 | 100 | 15
CC(=O)O[C@@H]1CC[C@@]2(C)[C@H](CC[C@@H]3[C@@H]2C[C@H](OC(C)=O)[C@]2(C)[C@@H]([C@H](C)CCC(=O)O)CC[C@@H]32)C1 | 30.5 |  |  |  |  |  |  |  | 100 | 82 | 98 | 10 | 100 | 36
C[C@H](CCC(=O)O)[C@H]1CC[C@H]2[C@@H]3CC[C@@H]4C[C@H](O)CC[C@]4(C)[C@H]3CC[C@]12C [LITHOCHOLIC ACID] | 26.9 |  |  |  |  |  |  |  | 100 | 85 | 98 | 22 | 100 | 5
C=C[C@H]1CN2CC[C@H]1C[C@H]2[C@H](O)c1ccnc2ccccc12 [CINCHONIDINE] | 0.963 | > 68 |  |  | > 71 |  |  |  |  |  |  |  |  | 
CC(=O)O[C@@H]1CC[C@@]2(C)[C@@H](C1)C[C@@H](OC(C)=O)[C@@H]1[C@@H]2CC[C@]2(C)[C@@H]([C@H](C)CCC(=O)O)CC[C@@H]12 | 21 | 16.8 |  | 12.5 |  |  |  |  | 100 | 59 | 98 | 57 | 90 | 99
CC[C@@]1(O)C(=O)OCc2c1cc1n(c2=O)Cc2cc3ccccc3nc2-1 [CAMPTOTHECIN] |  | 0.23 |  |  |  |  |  |  |  |  |  |  |  | 
CC(=O)O[C@@H]1CC[C@@]2(C)[C@@H](C1)[C@@H](OC(C)=O)[C@@H](OC(C)=O)[C@@H]1[C@@H]2CC[C@]2(C)[C@@H]([C@H](C)CCC(=O)O)CC[C@@H]12 | 8.1 |  |  | 5.6 |  |  |  |  | 100 | 88 | 96 | 9 | 97 | 83
C[C@H](CCC(=O)O)[C@H]1CC[C@H]2[C@@H]3[C@H](O)[C@H](O)[C@@H]4C[C@H](O)CC[C@]4(C)[C@H]3CC[C@]12C [HYOCHOLIC ACID] | 109 |  |  |  |  |  |  |  | 64 | 54 |  | 18 | 92 | 7
